Patent US20240228482A1, “COMPOUNDS, COMPOSITIONS AND METHODS OF TREATING CANCER” (HOTSPOT THERAPEUTICS, INC., priority 2021, published 2024)

biological target: T1, CBL-B (Homo sapiens, UniProt Q13191); experiment: CBL-B TR-FRET IC50 screening (E1/E2 ubiquitination, Biotin-Ubiquitin, Anti GST-Tb donor / Streptavidin-d2 acceptor); format: biochemical; settings: CBL-B 10 nM final; 11-point titration from 100 uM; binned A-F; read-out: CBL-B TR-FRET activity IC50
T1 construct: GST
T1 sequence (Q13191 whole entry): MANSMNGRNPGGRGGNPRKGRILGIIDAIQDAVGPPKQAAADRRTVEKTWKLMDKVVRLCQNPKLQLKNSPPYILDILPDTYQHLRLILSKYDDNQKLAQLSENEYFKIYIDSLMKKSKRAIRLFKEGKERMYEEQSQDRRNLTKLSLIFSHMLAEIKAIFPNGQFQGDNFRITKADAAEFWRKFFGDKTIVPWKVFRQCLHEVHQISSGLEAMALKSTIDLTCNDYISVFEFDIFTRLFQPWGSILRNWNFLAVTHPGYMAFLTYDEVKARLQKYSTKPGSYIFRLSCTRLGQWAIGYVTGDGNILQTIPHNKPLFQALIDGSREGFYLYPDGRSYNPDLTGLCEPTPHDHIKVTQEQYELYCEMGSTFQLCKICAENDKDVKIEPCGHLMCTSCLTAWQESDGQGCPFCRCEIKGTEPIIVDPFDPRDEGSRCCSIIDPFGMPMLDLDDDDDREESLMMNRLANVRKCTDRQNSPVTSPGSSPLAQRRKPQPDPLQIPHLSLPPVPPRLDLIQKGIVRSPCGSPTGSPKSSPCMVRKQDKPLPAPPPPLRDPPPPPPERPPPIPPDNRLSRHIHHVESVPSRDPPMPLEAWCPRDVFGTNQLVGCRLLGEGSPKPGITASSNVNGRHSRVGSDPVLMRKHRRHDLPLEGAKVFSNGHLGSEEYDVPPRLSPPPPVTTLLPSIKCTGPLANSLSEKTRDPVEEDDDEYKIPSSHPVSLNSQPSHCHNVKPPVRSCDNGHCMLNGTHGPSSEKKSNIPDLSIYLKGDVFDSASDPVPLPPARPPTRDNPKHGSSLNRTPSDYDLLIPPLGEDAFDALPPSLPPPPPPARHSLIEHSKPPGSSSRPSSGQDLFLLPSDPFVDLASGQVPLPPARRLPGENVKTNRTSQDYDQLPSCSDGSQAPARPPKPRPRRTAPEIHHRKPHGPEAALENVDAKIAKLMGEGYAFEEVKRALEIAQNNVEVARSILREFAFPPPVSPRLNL

IC50 | Compound
< 100 nM | Cn1cnnc1C1(c2cccc(-n3cc4c(C(F)(F)F)cc(CN5CCC6(CC6)C5)cn4c3=O)c2)CC2(CC2)C1 [Compound 115]
100 to 300 nM | Cn1cnnc1CC1(c2cccc(-n3cc4ccccn4c3=O)c2)COC1 [Compound 71]
< 100 nM | CN(C)C(=O)C1CCN(Cc2cc(C(F)(F)F)c3cn(-c4cccc([C@H](c5nncn5C)C5CCC5)c4)c(=O)n3c2)CC1 [Compound 377]
< 100 nM | Cn1cnnc1[C@]1(c2cccc(-n3cc4c(C(F)(F)F)cc(CN5CCC6(CC6)C5)cn4c3=O)c2)C[C@@H](C)C1 (single isomer, unassigned) [Compound 215]
100 to 300 nM | Cn1cnnc1[C@@H](c1cccc(-n2cc3c(C(F)(F)F)cc(CN4CC[C@@H](C(F)(F)F)C4)cn3c2=O)c1)C1CCC1 (single isomer, unassigned) [Compound 285]
< 100 nM | COC1CN(Cc2cc(C(F)(F)F)c3cn(-c4cccc([C@H](c5nncn5C)C5CCC5)c4)c(=O)n3c2)C1 [Compound 312]
3000 to 10000 nM | CC(Cc1nncn1C)c1ccc(F)c(-n2cc3c(C(F)(F)F)cccn3c2=O)c1 (stereo not drawn) [Compound 52]
100 to 300 nM | Cn1cnnc1CC1(c2cccc(-n3cc4c(C(F)(F)F)cc(Cl)cn4c3=O)c2)COC1 [Compound 93]
301 to 1000 nM | Cc1conc1[C@H](c1cccc(-n2cc3c(C(F)(F)F)cc(CN4CCC[C@H](C)C4)cn3c2=O)c1)C1CCC1 (single isomer, unassigned) [Compound 302]
< 100 nM | C[C@H]1CCCN1Cc1cc(C(F)(F)F)c2cn(-c3cccc([C@H](c4nncn4C)C4CCC4)c3)c(=O)n2c1 [Compound 380_P2]
< 100 nM | COC1CCN(Cc2cc(C(F)(F)F)c3cn(-c4cccc([C@H](c5nncn5C)C5CCC5)c4)c(=O)n3c2)CC1 [Compound 225]
< 100 nM | Cn1cnnc1[C@@H](c1cccc(-n2cc3c(C(F)(F)F)cc(CN4CCn5ncnc5C4)cn3c2=O)c1)C1CCC1 [Compound 317]
301 to 1000 nM | Cc1cccn2c(=O)n(-c3cccc(C4(Cc5nncn5C)COC4)c3)cc12 [Compound 70]
< 100 nM | C[C@H](c1cc(C(F)(F)F)c2cn(-c3cccc(C4(Cc5nncn5C)COC4)c3)c(=O)n2c1)N1CCC(F)CC1 [Compound 34]
> 10000 nM | Cn1cnnc1CC(c1ccccc1)c1cccc(-n2cc3c(C(F)(F)F)cccn3c2=O)c1 (stereo not drawn) [Compound 148]
100 to 300 nM | Cn1cnnc1CC1(c2cccc(-n3cc4c(C(F)(F)F)cc(C#CCN5CCCC5)cn4c3=O)c2)COC1 [Compound 89]
< 100 nM | CC1CN(Cc2cc(C(F)(F)F)c3cn(-c4cccc([C@H](c5nncn5C)C5CCC5)c4)c(=O)n3c2)CCC1(F)F (single isomer, unassigned) [Compound 171]
< 100 nM | C[C@H]1CCCN(Cc2cc(C(F)(F)F)c3cn(-c4cccc(N(c5nncn5C)C5CCC5)c4)c(=O)n3c2)C1 [Compound 260]
< 100 nM | CC(c1cc(C(F)(F)F)c2cn(-c3cccc(C4(Cc5nncn5C)COC4)c3)c(=O)n2c1)N1CCC[C@H](C)C1 (single isomer, unassigned) [Compound 119]
100 to 300 nM | C[C@H]1CCCN(Cc2cc(C(F)(F)F)c3cn(-c4cccc(C5(c6nncn6C)CC6(CC6)C5)c4)c(=O)n3c2)C1 [Compound 74]
301 to 1000 nM | CC(c1cc(C(F)(F)F)c2cn(-c3cccc([C@@H](c4nncn4C)C4CCC4)c3)c(=O)n2c1)N1CCC[C@H](C)C1 (single isomer, unassigned) [Compound 191]
< 100 nM | C[C@@H](c1cc(C(F)(F)F)c2cn(-c3cccc(C4(Cc5nncn5C)COC4)c3)c(=O)n2c1)N1CC2CC2C1 (single isomer, unassigned) [Compound 32]
100 to 300 nM | CC(=O)N1CC2CCC(C1)N2Cc1cc(C(F)(F)F)c2cn(-c3cccc([C@H](c4nncn4C)C4CCC4)c3)c(=O)n2c1 [Compound 348]
< 100 nM | Cn1cnnc1[C@@H](c1cccc(-n2cc3c(C(F)(F)F)cc(CN4CC(F)(F)C4)cn3c2=O)c1)C1CCC1 [Compound 299]
1000 to 3000 nM | CN1CC=C(c2cc(C(F)(F)F)c3cn(-c4cccc(C5(Cc6nncn6C)COC5)c4)c(=O)n3c2)CC1 [Compound 58, 2-(3-[3-[(4-methyl-1,2,4-triazol-3-yl)methyl]oxetan-3-yl]phenyl)-6-(1-methyl-3,6-dihydro-2H-pyridin-4-yl)-8-(trifluoromethyl)imidazo[1,5-a]pyridin-3-one]
< 100 nM | C[C@H]1CCCN(Cc2cc(C(F)(F)F)c3cn(-c4cccc(C5(c6nncn6C)CCC5)c4)c(=O)n3c2)C1 [Compound 341]
1000 to 3000 nM | Cc1cc(-n2cc3c(C(F)(F)F)cc(Br)cn3c2=O)cc(C2(Cc3nncn3C)COC2)c1 [Compound 238]
< 100 nM | Cn1cnnc1[C@@H](c1cccc(-n2cc3c(C(F)(F)F)cc(CN4CCC[C@@H](C(F)(F)F)C4)cn3c2=O)c1)C1CCC1 (single isomer, unassigned) [Compound 272]

same assay, conditions: second part of Table 2 (head 'Patent Cmpd No / Updated Activity'); same CBL-B TR-FRET IC50 bins A-F; read-out: Updated Activity

IC50 | Compound
> 10000 nM | Cn1cnnc1[C@@H](c1cc(C#N)cc(-n2cc3c(C(F)(F)F)cc(CN4CCC5(CC5)C4)cn3c2=O)c1)C1CCC1 (single isomer, unassigned) [Compound 496]
< 100 nM | C[C@H]1CCCN(Cc2cc(C(F)(F)F)c3cn(-c4cccc([C@H](c5nncn5C)C5CC5)c4)c(=O)n3c2)C1 [Compound 472_P2]
< 100 nM | C[C@@H]1CCCN(Cc2cc(C(F)(F)F)c3cn(-c4cccc(C5(Cc6nncn6C)COC5)c4)c(=O)n3c2)C1 [Compound 416]
< 100 nM | C[C@H]1CCCN(Cc2cc(C(F)(F)F)c3cn(-c4csc([C@H](c5nncn5C)C5CCC5)c4)c(=O)n3c2)C1 [Compound 550_P2]
> 10000 nM | COCc1csc([C@@H](c2cccc(-n3cc4c(C(F)(F)F)cc(CN5CCC[C@H](C)C5)cn4c3=O)c2)C2CCC2)n1 (single isomer, unassigned) [Compound 389]
< 100 nM | C[C@H](c1cc(C(F)(F)F)c2cn(-c3cccc([C@H](c4nncn4C)C4CCC4)c3)c(=O)n2c1)N(C)Cc1cncs1 [Compound 610_P1]
< 100 nM | Cn1cnnc1[C@@H](c1cccc(-n2cc3c(C(F)(F)F)cc(CN4CCN(S(C)(=O)=O)CC4)cn3c2=O)c1)C1CCC1 [Compound 572]
< 100 nM | C[C@H]1CCCN([C@@H](C)c2cc(C(F)(F)F)c3cn(-c4cccc(C5(c6nncn6C)CCC5)c4)c(=O)n3c2)C1 [Compound 506_P2]
301 to 1000 nM | CO[C@H]1C[C@@](c2cccc(-n3cc4c(C(F)(F)F)cc([C@@H](C)N5CC[C@H](F)C5)cn4c3=O)c2)(c2nncn2C)C1 (single isomer, unassigned) [Compound 615]
> 10000 nM | C[C@@H]1CN(Cc2cc(C(F)(F)F)c3cn(-c4cc(C#N)cc([C@@H](c5nncn5C)C5CCC5)c4)c(=O)n3c2)CCO1 (single isomer, unassigned) [Compound 517]
> 10000 nM | Cn1cnnc1[C@H](c1cc(-c2ccncn2)cc(-n2cc3c(C(F)(F)F)cccn3c2=O)c1)C1CCC1 (single isomer, unassigned) [Compound 441]
< 100 nM | Cn1cnnc1[C@@H](c1cccc(-n2cc3c(C(F)(F)F)cc(CN4CCCC(n5cnnc5)C4)cn3c2=O)c1)C1CCC1 (stereo partly drawn) [Compound 625]
> 10000 nM | C[C@@H]1CN(Cc2cc(C(F)(F)F)c3cn(-c4cc(F)cc([C@@H](c5nncn5C)C5CCC5)c4)c(=O)n3c2)CCO1 (single isomer, unassigned) [Compound 515]
100 to 300 nM | CO[C@H]1C[C@](c2cccc(-n3cc4c(C(F)(F)F)cc([C@H](C)N5CC[C@@H](F)C5)cn4c3=O)c2)(c2nncn2C)C1 (single isomer, unassigned) [Compound 618]
< 100 nM | C[C@H]1CC(=O)NN1Cc1cc(C(F)(F)F)c2cn(-c3cccc([C@H](c4nncn4C)C4CCC4)c3)c(=O)n2c1 (single isomer, unassigned) [Compound 599]
< 100 nM | C[C@@H](c1cc(C(F)(F)F)c2cn(-c3cccc([C@H](c4nncn4C)C4CCC4)c3)c(=O)n2c1)N1CC[C@H](F)C1 (single isomer, unassigned) [Compound 486]
100 to 300 nM | CO[C@H]1C[C@](c2cccc(-n3cc4c(C(F)(F)F)cc([C@@H](C)N5CCC(F)CC5)cn4c3=O)c2)(c2nncn2C)C1 (single isomer, unassigned) [Compound 606]
> 10000 nM | CCn1cnnc1[C@H](c1cccc(-n2cc3c(C(F)(F)F)cc(CN4CCC[C@H](C)C4)cn3c2=O)c1)C1CCC1 (single isomer, unassigned) [Compound 426]
3000 to 10000 nM | C[C@H]1CCCN(Cc2cc(C(F)(F)F)c3cn(-c4cccc([C@]5(c6nncn6C)C[C@](C)(O)C5)c4)c(=O)n3c2)C1 (single isomer, unassigned) [Compound 418]
< 100 nM | CN1CCCN(Cc2cc(C(F)(F)F)c3cn(-c4cccc([C@H](c5nncn5C)C5CCC5)c4)c(=O)n3c2)S1(=O)=O [Compound 562]
3000 to 10000 nM | C[C@H]1CCCN(Cc2cc(C(F)(F)F)c3cn(-c4cncc([C@H](c5nncn5C)C5CCC5)c4)c(=O)n3c2)C1 [Compound 628_P2]
< 100 nM | Cn1cnnc1[C@@H](c1cc(C#N)cc(-n2cc3c(C(F)(F)F)cc(CN4CCC(C)(F)CC4)cn3c2=O)c1)C1CCC1 (single isomer, unassigned) [Compound 508]
< 100 nM | Cn1cnnc1[C@@H](c1cccc(-n2cc3c(C(F)(F)F)cc(CN4CCC5(CC5)C4)cn3c2=O)c1)C1COC1 [Compound 412]
100 to 300 nM | CO[C@]1(C)C[C@](c2cccc(-n3cc4c(C(F)(F)F)cc(CN5CCC[C@H](C)C5)cn4c3=O)c2)(c2nncn2C)C1 (single isomer, unassigned) [Compound 439]
> 10000 nM | C[C@H]1CCCN(Cc2cc(C(F)(F)F)c3cn(-c4cccc([C@@H](c5nncn5C)[C@H]5C[C@](C)(O)C5)c4)c(=O)n3c2)C1 (single isomer, unassigned) [Compound 576]
< 100 nM | Cn1cnnc1[C@@H](c1cccc(-n2cc3c(C(F)(F)F)cc(CN4CCC[C@@](C)(O)C4)cn3c2=O)c1)C1CCC1 (single isomer, unassigned) [Compound 569]
